In patent US11345681B1, “Inhibitors of fibroblast growth factor receptor kinases” (Kinnate Biopharma Inc., priority 2020, dated 2022):

target: Wild type FGFR2 (Homo sapiens (Human), UniProt P21802); assay: FGFR2 kinase assay (fluorescence-based microfluidic mobility shift assay); assay type: biochemical; conditions: wild type FGFR2 0.06 nM, 100 μM ATP, 80 minutes at room temperature; class symbols
Sequence (P21802 22-821): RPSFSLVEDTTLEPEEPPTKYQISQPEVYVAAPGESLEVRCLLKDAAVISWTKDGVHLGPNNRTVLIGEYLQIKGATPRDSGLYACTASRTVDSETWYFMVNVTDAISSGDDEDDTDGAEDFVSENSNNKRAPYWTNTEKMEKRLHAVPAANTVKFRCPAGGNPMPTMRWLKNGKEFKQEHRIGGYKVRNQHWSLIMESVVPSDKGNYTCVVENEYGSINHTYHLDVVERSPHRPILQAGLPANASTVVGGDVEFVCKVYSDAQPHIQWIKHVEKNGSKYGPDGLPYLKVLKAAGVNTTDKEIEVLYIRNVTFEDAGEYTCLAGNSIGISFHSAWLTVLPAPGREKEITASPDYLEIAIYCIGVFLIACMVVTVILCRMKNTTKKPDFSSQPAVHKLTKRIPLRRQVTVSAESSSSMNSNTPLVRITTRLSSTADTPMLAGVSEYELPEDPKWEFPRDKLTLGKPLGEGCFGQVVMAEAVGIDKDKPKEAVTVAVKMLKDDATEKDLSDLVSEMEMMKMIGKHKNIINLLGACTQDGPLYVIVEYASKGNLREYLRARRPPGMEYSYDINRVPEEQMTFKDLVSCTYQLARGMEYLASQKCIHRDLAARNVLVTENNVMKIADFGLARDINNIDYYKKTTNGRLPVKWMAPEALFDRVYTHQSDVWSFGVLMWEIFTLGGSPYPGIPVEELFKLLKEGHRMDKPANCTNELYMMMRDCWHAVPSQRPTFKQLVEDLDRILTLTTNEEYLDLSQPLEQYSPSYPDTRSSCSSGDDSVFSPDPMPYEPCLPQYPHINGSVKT

IC50, ≤ 100 nM:
C=CC(=O)N1C[C@@H](n2nc(C#Cc3cc4nc(C)n(CC)c4cc3Cl)c(C(N)=O)c2NC)C[C@@H]1COC [Example 33, 1-((3S,5R)-1-acryloyl-5-(methoxymethyl)pyrrolidin-3-yl)-3-((6-chloro-1-ethyl-2-methyl-1H-benzo[d]imidazol-5-yl)ethynyl)-5-(methylamino)-1H-pyrazole-4-carboxamide]
C=CC(=O)N1C[C@@H](n2nc(C#Cc3c(F)cc4c(nc(C)n4CC(F)(F)F)c3F)c(C(N)=O)c2NC)C[C@@H]1COC [Example 35, 1-((3S,5R)-1-acryloyl-5-(methoxymethyl)pyrrolidin-3-yl)-3-((4,6-difluoro-2-methyl-1-(2,2,2-trifluoroethyl)-1H-benzo[d]imidazol-5-yl)ethynyl)-5-(methylamino)-1H-pyrazole-4-carboxamide]
C=CC(=O)N1C[C@@H](n2nc(C#Cc3cc4nc(C)n(CC)c4cc3F)c(C(N)=O)c2NC)C[C@@H]1COC [Example 37, 3-[2-(1-ethyl-6-fluoro-2-methyl-1,3-benzodiazol-5-yl)ethynyl]-1-[(3S,5R)-5-(methoxymethyl)-1-(Prop-2-enoyl)pyrrolidin-3-yl]-5-(methylamino)pyrazole-4-carboxamide]
C=CC(=O)N1C[C@@H](n2nc(C#Cc3ccc4c(nc(C)n4CC)c3Cl)c(C(N)=O)c2NC)C[C@@H]1COC [Example 38, 3-[2-(4-chloro-1-ethyl-2-methyl-1,3-benzodiazol-5-yl)ethynyl]-1-[(3S,5R)-5-(methoxymethyl)-1-(prop-2-enoyl)pyrrolidin-3-yl]-5-(methylamino)pyrazole-4-carboxamide]
C=CC(=O)N1C[C@@H](n2nc(C#Cc3cc4ncn(C)c4cc3F)c(C(N)=O)c2NC)C[C@@H]1COC [Example 40, 3-[2-(6-fluoro-1-methyl-1,3-benzodiazol-5-yl)ethynyl]-1-[(3S,5)-5-(methoxymethyl)-1-(prop-2-enoyl)pyrrolidin-3-yl]-5-(methylamino)pyrazole-4-carboxamide]
C=CC(=O)N1C[C@@H](n2nc(C#Cc3ccc4[nH]c(C5CC5)nc4c3)c(C(N)=O)c2NC)C[C@@H]1COC [Example 42, 3-[2-(2-cyclopropyl-1H-1,3-benzodiazol-5-yl)ethynyl]-1-[(3S,5R)-5-(methoxymethyl)-1-(prop-2-enoyl)pyrrolidin-3-yl]-5-(methylamino)pyrazole-4-carboxamide]
C=CC(=O)N1C[C@@H](n2nc(C#Cc3ccc4c(c3)nc(C3CC3)n4C)c(C(N)=O)c2NC)C[C@@H]1COC [Example 43, 3-[2-(2-cyclopropyl-1-methyl-1,3-benzodiazol-5-yl)ethynyl]-1-[(3S,5R)-5-(methoxymethyl)-1-(prop-2-enoyl)pyrrolidin-3-yl]-5-(methylamino)pyrazole-4-carboxamide]
C=CC(=O)N1C[C@@H](n2nc(C#Cc3ccc4c(C)noc4c3)c(C(N)=O)c2NC)C[C@@H]1COC [Example 44, 1-[(3S,5R)-5-(methoxymethyl)-1-(prop-2-enoyl)pyrrolidin-3-yl]-3-[2-(3-methyl-1,2-benzoxazol-6-yl)ethynyl]-5-(methylamino)pyrazole-4-carboxamide]
C=CC(=O)N1C[C@@H](n2nc(C#Cc3c(F)cc4c(nc(C5CC5)n4CC)c3F)c(C(N)=O)c2NC)C[C@@H]1COC [Example 45, 3-[2-(2-cyclopropyl-1-ethyl-4,6-difluoro-1,3-benzodiazol-5-yl)ethynyl]-1-[(3S,5R)-5-(methoxymethyl)-1-(prop-2-enoyl)pyrrolidin-3-yl]-5-(methylamino) pyrazole-4-carboxamide]
C=CC(=O)N1C[C@@H](n2nc(C#Cc3c(F)cc4[nH]c(C(F)(F)F)nc4c3F)c(C(N)=O)c2NC)C[C@@H]1COC [Example 46]
C=CC(=O)N1C[C@@H](n2nc(C#Cc3c(F)cc4c(nc(C5CC5)n4C)c3F)c(C(N)=O)c2NC)C[C@@H]1COC [Example 50, 3-[2-(2-Cyclopropyl-4,6-difluoro-1-methyl-1,3-benzodiazol-5-yl)ethynyl]-1-[(3S,5R)-5-(methoxymethyl)-1-(prop-2-enoyl)pyrrolidin-3-yl]-5-(methylamino)pyrazole-4-carboxamide]
C=CC(=O)N1C[C@@H](n2nc(C#Cc3ccc4c(nc(C5CC5)n4C)c3F)c(C(N)=O)c2NC)C[C@@H]1COC [Example 51, 1-((3S,5R)-1-Acryloyl-5-(methoxymethyl)pyrrolidin-3-yl)-3-((2-cyclopropyl-4-fluoro-1-methyl-1H-benzo[d]imidazol-5-yl)ethynyl)-5-(methylamino)-1H-pyrazole-4-carboxamide]
C=CC(=O)N1C[C@@H](n2nc(C#Cc3ccc4cccnc4c3)c(C(N)=O)c2NC)C[C@@H]1COC [Example 52, 1-[(3S,5R)-5-(Methoxymethyl)-1-(prop-2-enoyl)pyrrolidin-3-yl]-5-(methylamino)-3-[2-(quinolin-7-yl)ethynyl]pyrazole-4-carboxamide]
C=CC(=O)N1C[C@@H](n2nc(C#Cc3ccn4ccnc4c3)c(C(N)=O)c2NC)C[C@@H]1COC [Example 54, 1-((3S,5R)-1-Acryloyl-5-(methoxymethyl)pyrrolidin-3-yl)-3-(imidazo[1,2-a]pyridin-7-ylethynyl)-5-(methylamino)-1H-pyrazole-4-carboxamide]
C=CC(=O)N1C[C@@H](n2nc(C#Cc3ccn4nccc4c3)c(C(N)=O)c2NC)C[C@@H]1COC [Example 56, 1-[(3S,5R)-5-(Methoxymethyl)-1-(prop-2-enoyl)pyrrolidin-3-yl]-5-(methylamino)-3-(2-[pyrazolo[1,5-a]pyridin-5-yl]ethynyl)pyrazole-4-carboxamide]
C=CC(=O)N1C[C@@H](n2nc(C#Cc3c(F)cc4[nH]c(C5CC5)nc4c3F)c(C(N)=O)c2NC)C[C@@H]1COC [Example 61, 3-[2-(2-Cyclopropyl-4,6-difluoro-1H-1,3-benzodiazol-5-yl)ethynyl]-1-[(3S,5R)-5-(methoxymethyl)-1-(prop-2-enoyl)pyrrolidin-3-yl]-5-(methylamino)pyrazole-4-carboxamide]
C=CC(=O)N1C[C@@H](n2nc(C#Cc3cc4nc(C5CC5)n(C)c4cc3F)c(C(N)=O)c2NC)C[C@@H]1COC [Example 62, 3-[2-(2-Cyclopropyl-6-fluoro-1-methyl-1,3-benzodiazol-5-yl)ethynyl]-1-[(3S,5R)-5-(methoxymethyl)-1-(prop-2-enoyl)pyrrolidin-3-yl]-5-(methylamino)pyrazole-4-carboxamide]

IC50, 100 to 1000 nM:
C=CC(=O)N1C[C@@H](n2nc(C#Cc3ccc4ncn(CC)c4c3F)c(C(N)=O)c2NC)C[C@@H]1COC [Example 36, 3-[2-(3-ethyl-4-fluoro-1,3-benzodiazol-5-yl)ethynyl]-1-[(3S,5R)-5-(methoxymethyl)-1-(prop-2-enoyl)pyrrolidin-3-yl]-5-(methylamino)pyrazole-4-carboxamide]
C=CC(=O)N1C[C@@H](n2nc(C#Cc3ccc4c(n3)nc(C)n4CC)c(C(N)=O)c2NC)C[C@@H]1COC [Example 39, 3-(2-[1-ethyl-2-methylimidazo[4,5-b]pyridin-5-yl]ethynyl)-1-[(3S,5R)-5-(methoxymethyl)-1-(prop-2-enoyl)pyrrolidin-3-yl]-5-(methylamino)pyrazole-4-carboxamide]
C=CC(=O)N1C[C@@H](n2nc(C#Cc3ccc4ncn(C)c4c3F)c(C(N)=O)c2NC)C[C@@H]1COC [Example 41, 3-[2-(4-fluoro-^-1-methyl-1,3-benzodiazol-5-yl)ethynyl]-1-[(3S,5R)-5-(methoxymethyl)-1-(prop-2-enoyl)pyrrolidin-3-yl]-(methylamino)pyrazole-4-carboxamide]
C=CC(=O)N1C[C@@H](n2nc(C#Cc3cc4nc(C)n(CC)c4cn3)c(C(N)=O)c2NC)C[C@@H]1COC [Example 48, 3-(2-[3-Ethyl-2-methylimidazo[4,5-c]pyridin-6-yl]ethynyl)-1-[(3S,5R)-5-(methoxymethyl)-1-(prop-2-enoyl)pyrrolidin-3-yl]-5-(methylamino)pyrazole-4-carboxamide]
C=CC(=O)N1C[C@@H](n2nc(C#Cc3ccn4nccc4n3)c(C(N)=O)c2NC)C[C@@H]1COC [Example 53, 1-[(3S,5R)-5-(Methoxymethyl)-1-(prop-2-enoyl)pyrrolidin-3-yl]-5-(methylamino)-3-(2-[pyrazolo[1,5-a]pyrimidin-5-yl]ethynyl)pyrazole-4-carboxamide]

same assay, conditions: wild type FGFR2 0.06 nM, 100 μM ATP, 80 minutes at room temperature; given as numeric bound

IC50, > 500 nM:
C=CC(=O)N1C[C@@H](n2nc(C#Cc3ccc4nccn4c3)c(C(N)=O)c2NC)C[C@@H]1COC [Example 55, 1-((3S,5R)-1-Acryloyl-5-(methoxymethyl)pyrrolidin-3-yl)-3-(imidazo[1,2-a]pyridin-6-ylethynyl)-5-(methylamino)-1H-pyrazole-4-carboxamide]
C=CC(=O)N1C[C@@H](n2nc(C#Cc3cnc4nccn4c3)c(C(N)=O)c2NC)C[C@@H]1COC [Example 57, 3-(2-[Imidazo[1,2-a]pyrimidin-6-yl]ethynyl)-1-[(3S,5R)-5-(methoxymethyl)-1-(prop-2-enoyl)pyrrolidin-3-yl]-5-(methylamino)pyrazole-4-carboxamide]
C=CC(=O)N1C[C@@H](n2nc(C#Cc3ccn4ccnc4n3)c(C(N)=O)c2NC)C[C@@H]1COC [Example 58, 3-(2-[Imidazo[1,2-a]pyrimidin-7-yl]ethynyl)-1-[(3S,5R)-5-(methoxymethyl)-1-(prop-2-enoyl)pyrrolidin-3-yl]-5-(methylamino)pyrazole-4-carboxamide]
C=CC(=O)N1C[C@@H](n2nc(C#Cc3cc4nc(C5CC5)n(C)c4cn3)c(C(N)=O)c2NC)C[C@@H]1COC [Example 63, 3-(2-[2-Cyclopropyl-3-methylimidazo[4,5-c]pyridin-6-yl]ethynyl)-1-[(3S,5R)-5-(methoxymethyl)-1-(prop-2-enoyl)pyrrolidin-3-yl]-5-(methylamino)pyrazole-4-carboxamide]
